Test results reported in EP0908457B1, “3-(1,2-benzisothiazol- and isoxazol-5-Y1)-2,4(1H,3H)-pyrimidinedione or thione and 3-(1,2-benzisothiazol- and isoxazol-5-y1)-4(3H)-pyrimidinone or thione herbicidal agents” (BASF AKTIENGESELLSCHAFT, priority 1997, dated 1999).

Tests used:
[1] = test system: Echinochloa oryzoides (Ard.) Fritsch.; experiment: Preemergence weed control under flooded paddy conditions, ECHORC (Watergrass (Calif.)); type: in vivo; settings: flooded paddy; for ECHORC herbicidal effect rating / ECHORC herbicidal rating / herbicidal effect rating, ECHORC: preemergence; for ECHORC herbicidal effect rating / ECHORC herbicidal rating: rated three to four weeks after treatment; for herbicidal effect rating, ECHORC: rated 3-4 weeks after treatment; for ECHORC: preemergence weeds, herbicidal effect rating 0-9, three to four weeks after treatment
Cyperus iria = experiment: Preemergence weed control under flooded paddy conditions, CYPIR (Rice Flatsedge); type: in vivo; settings: flooded paddy; for CYPIR herbicidal effect rating / CYPIR herbicidal rating / herbicidal effect rating, CYPIR: preemergence; for CYPIR herbicidal effect rating / CYPIR herbicidal rating: rated three to four weeks after treatment; for herbicidal effect rating, CYPIR: rated 3-4 weeks after treatment; for CYPIR: preemergence weeds, herbicidal effect rating 0-9, three to four weeks after treatment
[2] = test system: Cyperus serotinus, Rottb.; experiment: Preemergence weed control under flooded paddy conditions, CYPSE (Flatsedge); type: in vivo; settings: for CYPSE herbicidal effect rating / CYPSE herbicidal rating / herbicidal effect rating, CYPSE: preemergence; for CYPSE herbicidal effect rating / CYPSE herbicidal rating: rated three to four weeks after treatment; for herbicidal effect rating, CYPSE: rated 3-4 weeks after treatment; for CYPSE: preemergence weeds, herbicidal effect rating 0-9, three to four weeks after treatment
[3] = test system: Monochoria vaginalis, Presl.; experiment: Preemergence weed control under flooded paddy conditions, MOOVA (Monochoria); type: in vivo; settings: flooded paddy; for MOOVA herbicidal effect rating / MOOVA herbicidal rating / herbicidal effect rating, MOOVA: preemergence; for MOOVA herbicidal effect rating / MOOVA herbicidal rating: rated three to four weeks after treatment; for herbicidal effect rating, MOOVA: rated 3-4 weeks after treatment; for MOOVA: preemergence weeds, herbicidal effect rating 0-9, three to four weeks after treatment
Sagittaria pygmaea, L. = experiment: Preemergence weed control under flooded paddy conditions, SAGPY (Arrowhead (Pygmaea)); type: in vivo; settings: flooded paddy; for SAGPY herbicidal effect rating / SAGPY herbicidal rating / herbicidal effect rating, SAGPY: preemergence; for SAGPY herbicidal effect rating / SAGPY herbicidal rating: rated three to four weeks after treatment; for herbicidal effect rating, SAGPY: rated 3-4 weeks after treatment; for SAGPY: preemergence weeds, herbicidal effect rating 0-9, three to four weeks after treatment
[4] = test system: Oryza sativa, (L.) Tebonnet; experiment: Rice tolerance to post-transplant applications under flooded paddy conditions (Example 187), ORYSAT (Rice, Tebonnet); settings: for ORYSAT herbicidal effect rating / ORYSAT herbicidal rating (rice tolerance): rated three to four weeks after treatment; for herbicidal effect rating ORYSAT: rated 3-4 weeks after treatment; for ORYSAT: herbicidal effect rating 0-9, three to four weeks after treatment; as to herbicidal effect rating ORYSAT: meaning of each grade not given here

C#CCOC(=O)COc1ccc(-c2nsc3ccc(-n4c(=O)cc(C(F)(F)F)n(C)c4=O)cc23)cc1 [Example 259, Acetic acid, [p-{5-[3,6-dihydro-3-methyl-2,6-dioxo-4-(trifluoromethyl)-1(2H)-pyrimidinyl]-1,2-benzisothiazol-3-yl}phenoxy)-, 2-propynyl ester]
ECHORC herbicidal effect rating ([1]; Rate 0.0320 kg/ha): 0.0
ECHORC herbicidal effect rating ([1]; Rate 0.0620 kg/ha): 0.0
ECHORC herbicidal effect rating ([1]; Rate 0.1250 kg/ha): 0.0
ECHORC herbicidal effect rating ([1]; Rate 0.2500 kg/ha): 2.0
CYPIR herbicidal effect rating (Cyperus iria; Rate 0.0320 kg/ha): 0.0
CYPIR herbicidal effect rating (Cyperus iria; Rate 0.0620 kg/ha): 2.0
CYPIR herbicidal effect rating (Cyperus iria; Rate 0.1250 kg/ha): 4.0
CYPIR herbicidal effect rating (Cyperus iria; Rate 0.2500 kg/ha): 4.0
CYPSE herbicidal effect rating ([2]; Rate 0.0320 kg/ha): 0.0
CYPSE herbicidal effect rating ([2]; Rate 0.0620 kg/ha): 0.0
MOOVA herbicidal effect rating ([3]; Rate 0.0320 kg/ha): 6.0
MOOVA herbicidal effect rating ([3]; Rate 0.0620 kg/ha): 9.0
MOOVA herbicidal effect rating ([3]; Rate 0.1250 kg/ha): 9.0
MOOVA herbicidal effect rating ([3]; Rate 0.2500 kg/ha): 9.0
SAGPY herbicidal effect rating (Sagittaria pygmaea, L.; Rate 0.0320 kg/ha): 0.0
SAGPY herbicidal effect rating (Sagittaria pygmaea, L.; Rate 0.0620 kg/ha): 0.0
SAGPY herbicidal effect rating (Sagittaria pygmaea, L.; Rate 0.1250 kg/ha): 0.0
SAGPY herbicidal effect rating (Sagittaria pygmaea, L.; Rate 0.2500 kg/ha): 0.0
ORYSAT herbicidal effect rating ([4]; Rate 0.0320 kg/ha): 1.0
ORYSAT herbicidal effect rating ([4]; Rate 0.0620 kg/ha): 1.0
ORYSAT herbicidal effect rating ([4]; Rate 0.1250 kg/ha): 2.0
ORYSAT herbicidal effect rating ([4]; Rate 0.2500 kg/ha): 3.0

Cn1c(C(F)(F)F)cc(=O)n(-c2ccc3snc(C(C)(C)C(=O)NS(C)(=O)=O)c3c2)c1=O [Example 488, 1,2-Benzisothiazole-3-acetamide, 5-[3,6-dihydro-3-methyl-2,6-dioxo-4-(trifluoromethyl)-1(2H)-pyrimidinyl]-alpha,alpha-dimethyl-N-(methylsulfonyl)-]
ECHORC herbicidal rating ([1]; 0.0320 kg/ha): 0.0
ECHORC herbicidal rating ([1]; 0.0620 kg/ha): 0.0
ECHORC herbicidal rating ([1]; 0.1250 kg/ha): 0.0
ECHORC herbicidal rating ([1]; 0.2500 kg/ha): 0.0
CYPIR herbicidal rating (Cyperus iria; 0.0320 kg/ha): 3.0
CYPIR herbicidal rating (Cyperus iria; 0.0620 kg/ha): 3.0
CYPIR herbicidal rating (Cyperus iria; 0.1250 kg/ha): 4.0
CYPIR herbicidal rating (Cyperus iria; 0.2500 kg/ha): 5.0
CYPSE herbicidal rating ([2]; 0.0620 kg/ha): 0.0
CYPSE herbicidal rating ([2]; 0.1250 kg/ha): 0.0
MOOVA herbicidal rating ([3]; 0.0320 kg/ha): 7.0
MOOVA herbicidal rating ([3]; 0.0620 kg/ha): 9.0
MOOVA herbicidal rating ([3]; 0.1250 kg/ha): 9.0
MOOVA herbicidal rating ([3]; 0.2500 kg/ha): 9.0
SAGPY herbicidal rating (Sagittaria pygmaea, L.; 0.0320 kg/ha): 0.0
SAGPY herbicidal rating (Sagittaria pygmaea, L.; 0.0620 kg/ha): 0.0
SAGPY herbicidal rating (Sagittaria pygmaea, L.; 0.1250 kg/ha): 0.0
SAGPY herbicidal rating (Sagittaria pygmaea, L.; 0.2500 kg/ha): 0.0
ORYSAT herbicidal rating (rice tolerance) ([4]; 0.0320 kg/ha): 3.0
ORYSAT herbicidal rating (rice tolerance) ([4]; 0.0620 kg/ha): 3.0
ORYSAT herbicidal rating (rice tolerance) ([4]; 0.1250 kg/ha): 4.0
ORYSAT herbicidal rating (rice tolerance) ([4]; 0.2500 kg/ha): 4.0

Cc1ccc(OC(C)(C)C(=O)OCC(F)(F)F)c(-c2nsc3ccc(-n4c(=O)cc(C(F)(F)F)n(C)c4=O)cc23)c1 [Example 545, Propionic acid, 2-{{2-{5-[3,6-dihydro-3-methyl-2,6-dioxo-4-(trifluoromethyl)-1(2H)-pyrimidinyl]-1,2-benzisothiazol-3-yl}-p-tolyl}oxy}-2-methyl-, 2,2,2-trifluoroethyl ester]
herbicidal effect rating, ECHORC ([1]; Rate 0.0320 kg/ha): 5.6
herbicidal effect rating, ECHORC ([1]; Rate 0.0620 kg/ha): 6.6
herbicidal effect rating, ECHORC ([1]; Rate 0.1250 kg/ha): 7.0
herbicidal effect rating, ECHORC ([1]; Rate 0.2500 kg/ha): 9.0
herbicidal effect rating, ECHORC ([1]; Rate 0.5000 kg/ha): 9.0
herbicidal effect rating, CYPIR (Cyperus iria; Rate 0.0320 kg/ha): 4.0
herbicidal effect rating, CYPIR (Cyperus iria; Rate 0.0620 kg/ha): 5.0
herbicidal effect rating, CYPIR (Cyperus iria; Rate 0.1250 kg/ha): 6.0
herbicidal effect rating, CYPIR (Cyperus iria; Rate 0.2500 kg/ha): 7.0
herbicidal effect rating, CYPIR (Cyperus iria; Rate 0.5000 kg/ha): 9.0
herbicidal effect rating, CYPSE ([2]; Rate 0.0320 kg/ha): 0.0
herbicidal effect rating, CYPSE ([2]; Rate 0.0620 kg/ha): 0.0
herbicidal effect rating, CYPSE ([2]; Rate 0.1250 kg/ha): 9.0
herbicidal effect rating, CYPSE ([2]; Rate 0.2500 kg/ha): 9.0
herbicidal effect rating, CYPSE ([2]; Rate 0.5000 kg/ha): 6.0
herbicidal effect rating, MOOVA ([3]; Rate 0.0320 kg/ha): 6.0
herbicidal effect rating, MOOVA ([3]; Rate 0.0620 kg/ha): 7.0
herbicidal effect rating, MOOVA ([3]; Rate 0.1250 kg/ha): 9.0
herbicidal effect rating, MOOVA ([3]; Rate 0.2500 kg/ha): 9.0
herbicidal effect rating, MOOVA ([3]; Rate 0.5000 kg/ha): 9.0
herbicidal effect rating, SAGPY (Sagittaria pygmaea, L.; Rate 0.0320 kg/ha): 0.0
herbicidal effect rating, SAGPY (Sagittaria pygmaea, L.; Rate 0.0620 kg/ha): 0.0
herbicidal effect rating, SAGPY (Sagittaria pygmaea, L.; Rate 0.1250 kg/ha): 4.0
herbicidal effect rating, SAGPY (Sagittaria pygmaea, L.; Rate 0.2500 kg/ha): 7.0
herbicidal effect rating, SAGPY (Sagittaria pygmaea, L.; Rate 0.5000 kg/ha): 9.0
herbicidal effect rating ORYSAT ([4]; Rate 0.0320 kg/ha): 2.0
herbicidal effect rating ORYSAT ([4]; Rate 0.0620 kg/ha): 2.0
herbicidal effect rating ORYSAT ([4]; Rate 0.1250 kg/ha): 4.0
herbicidal effect rating ORYSAT ([4]; Rate 0.2500 kg/ha): 9.0
herbicidal effect rating ORYSAT ([4]; Rate 0.5000 kg/ha): 9.0

CN(C)/N=C/c1nsc2ccc(-n3c(=O)cc(C(F)(F)F)n(C)c3=O)cc12 [Example 409, 1,2-Benzisothiazole-3-carboxaldehyde, 5-[3,6-dihydro-3-methyl-2,6-dioxo-4-(trifluoromethyl)-1(2H)-pyrimidinyl]-, 3-(dimethylhydrazone), (E)-]
ECHORC ([1]; 0.0320 kg/ha): 3.0
ECHORC ([1]; 0.0620 kg/ha): 4.0
ECHORC ([1]; 0.1250 kg/ha): 9.0
ECHORC ([1]; 0.2500 kg/ha): 9.0
CYPIR (Cyperus iria; 0.0320 kg/ha): 7.0
CYPIR (Cyperus iria; 0.0620 kg/ha): 9.0
CYPIR (Cyperus iria; 0.1250 kg/ha): 9.0
CYPIR (Cyperus iria; 0.2500 kg/ha): 9.0
CYPSE ([2]; 0.0320 kg/ha): 2.0
CYPSE ([2]; 0.0620 kg/ha): 5.0
CYPSE ([2]; 0.1250 kg/ha): 9.0
CYPSE ([2]; 0.2500 kg/ha): 9.0
MOOVA ([3]; 0.0320 kg/ha): 9.0
MOOVA ([3]; 0.0620 kg/ha): 9.0
MOOVA ([3]; 0.1250 kg/ha): 9.0
MOOVA ([3]; 0.2500 kg/ha): 9.0
SAGPY (Sagittaria pygmaea, L.; 0.0320 kg/ha): 2.0
SAGPY (Sagittaria pygmaea, L.; 0.0620 kg/ha): 4.0
SAGPY (Sagittaria pygmaea, L.; 0.1250 kg/ha): 7.0
SAGPY (Sagittaria pygmaea, L.; 0.2500 kg/ha): 9.0
ORYSAT ([4]; 0.0320 kg/ha): 3.0
ORYSAT ([4]; 0.0620 kg/ha): 5.0
ORYSAT ([4]; 0.1250 kg/ha): 7.0
ORYSAT ([4]; 0.2500 kg/ha): 9.0
